In patent US20180207228A1, “PEPTIDE COMBINATIONS AND USES THEREOF FOR TREATING GRASS ALLERGY” (ALK-Abelló A/S, priority 2015, published 2018):
Where no end group is shown, it is not given here.

Each substance was assayed on release of IFN-γ upon T cell activation (assay: Fluorospot assay, IFN-γ release (DK1-TCL01, US1-TCL01)). Details: head prints TCL-02 DK1; 17 TCL-01 DK1 lines.
Type: cell-based, human
In short: (§1)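 Grass-allergic donors' CD8-depleted PBMCs were expanded 14 days with natural grass allergens plus IL-2 to give TCL01 lines. These were incubated 20 h at 37° C with single peptides or peptide mixes at 2 μg/ml, and spot-forming cells were counted. Hit: SI≥2, p≤0.05, Poisson ≤0.05, ≥20 SFC/10^6 cells.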
In the case of IPKVPPGPNITATYGDKWLD-OH [compound 14], the “IFN-gamma % donor coverage (TCL-02 DK1)” value is reported as 0.00%.
With ITATYGDKWLDAKSTWYGKP-OH [compound 16] the “IFN-gamma % donor coverage (TCL-02 DK1)” value was 4.00%.
With KDKWIELKESWGAIWRIDTP-OH [compound 10] the “IFN-gamma % donor coverage (TCL-02 DK1)” value was 4.00%.
For KEDFLGSLVKEIPPRLLYAK-OH [compound 45], the “IFN-gamma % donor coverage (TCL-02 DK1)” value was 0.00%.
With KPAAAATATATSAVGAATGA-OH [compound 87] the “IFN-gamma % donor coverage (TCL-02 DK1)” value was 0.00%.
With KPPFSGMTGSGNTPI-OH [compound 122] the “IFN-gamma % donor coverage (TCL-02 DK1)” value was 0.00%.
For KPPFSGMTGSGNTPIFKSGR-OH [compound 19], the “IFN-gamma % donor coverage (TCL-02 DK1)” value was 0.00%.
For KPTGAGPKDNGGASGYKDVD-OH [compound 17], the “IFN-gamma % donor coverage (TCL-02 DK1)” value was 4.00%.
With KSSKPLVGPFNFRFMSKGGM-OH [compound 39] the “IFN-gamma % donor coverage (TCL-02 DK1)” value was 4.00%.
KVPPGPNITATYGDKWLDAK-OH [compound 15] was tested, and the “IFN-gamma % donor coverage (TCL-02 DK1)” value was 0.00%.
LSYRSLQPETFAVVDLNKMR-OH [compound 53] was tested, and the “IFN-gamma % donor coverage (TCL-02 DK1)” value was 4.00%.
LVKYVNGDGDVVAVDIKEKG-OH [compound 9] was tested, and the “IFN-gamma % donor coverage (TCL-02 DK1)” value was 8.00%.
With PFDGMTASGNEPIFKDGLGS-OH [compound 94] the “IFN-gamma % donor coverage (TCL-02 DK1)” value was 4.00%.
In the case of PMKSSWGAIWRIDPKKPLKG-OH [compound 108], the “IFN-gamma % donor coverage (TCL-02 DK1)” value is reported as 0.00%.
For PYVSKNPRQAYANYRDIDLG-OH [compound 56], the “IFN-gamma % donor coverage (TCL-02 DK1)” value was 4.00%.
RASYEIKSKEPVESSGEPVL-OH [compound 96] was tested, and the “IFN-gamma % donor coverage (TCL-02 DK1)” value was 0.00%.
RFLTEKGMKNVFDDVVPEKY-OH [compound 34] was tested, and the “IFN-gamma % donor coverage (TCL-02 DK1)” value was 0.00%.

The substances below were run on allergen specific T cells (assay: T cell proliferation assay (72 h) on donor derived T cell lines (TCL02/TCL03)). Details: T cell lines TCL-02 DK1, 30 donors; hit criteria SI>=2, CPM>=1000.
Type: cell-based, human
In short: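 CD8-depleted PBMCs from grass-allergic donors stimulated with natural grass allergen mix (nPhl p 1 0.5 μg/ml) to raise T cell lines; restimulated with irradiated APCs, allergens or PHA-P (0.5 μg/ml) plus rIL-2. Proliferation to overlapping 20-mer and selected 15-mer grass peptides tested with TCL02 (day 24) or TCL03 (day 34).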
With IPKVPPGPNITATYGDKWLD-OH [compound 14] the “Proliferation % donor coverage (TCL-02 DK1)” value (“Proliferation % donor coverage” below) was 3.33%.
With ITATYGDKWLDAKSTWYGKP-OH [compound 16] the “Proliferation % donor coverage” value was 10.00%.
In the case of KDKWIELKESWGAIWRIDTP-OH [compound 10], the “Proliferation % donor coverage” value is reported as 60.00%.
KEDFLGSLVKEIPPRLLYAK-OH [compound 45] was tested, and the “Proliferation % donor coverage” value was 20.00%.
With KPAAAATATATSAVGAATGA-OH [compound 87] the “Proliferation % donor coverage” value was 10.00%.
In the case of KPPFSGMTGSGNTPI-OH [compound 122], the “Proliferation % donor coverage” value is reported as 10.34%.
For KPPFSGMTGSGNTPIFKSGR-OH [compound 19], the “Proliferation % donor coverage” value was 16.67%.
In the case of KPTGAGPKDNGGASGYKDVD-OH [compound 17], the “Proliferation % donor coverage” value is reported as 23.33%.
KSSKPLVGPFNFRFMSKGGM-OH [compound 39] was tested, and the “Proliferation % donor coverage” value was 13.33%.
With KVPPGPNITATYGDKWLDAK-OH [compound 15] the “Proliferation % donor coverage” value was 3.33%.
With LSYRSLQPETFAVVDLNKMR-OH [compound 53] the “Proliferation % donor coverage” value was 10.00%.
For LVKYVNGDGDVVAVDIKEKG-OH [compound 9], the “Proliferation % donor coverage” value was 26.67%.
In the case of PFDGMTASGNEPIFKDGLGS-OH [compound 94], the “Proliferation % donor coverage” value is reported as 16.67%.
PMKSSWGAIWRIDPKKPLKG-OH [compound 108] was tested, and the “Proliferation % donor coverage” value was 33.33%.
In the case of PYVSKNPRQAYANYRDIDLG-OH [compound 56], the “Proliferation % donor coverage” value is reported as 20.00%.
For RASYEIKSKEPVESSGEPVL-OH [compound 96], the “Proliferation % donor coverage” value was 6.67%.
In the case of RFLTEKGMKNVFDDVVPEKY-OH [compound 34], the “Proliferation % donor coverage” value is reported as 6.67%.

Same assay, conditions: T cell lines TCL-02 DK1; strength of response (average relative magnitude)
IPKVPPGPNITATYGDKWLD-OH [compound 14] was tested, and the “Proliferation strength (TCL-02 DK1)” value was 0.40.
ITATYGDKWLDAKSTWYGKP-OH [compound 16] was tested, and the “Proliferation strength (TCL-02 DK1)” value was 0.70.
In the case of KDKWIELKESWGAIWRIDTP-OH [compound 10], the “Proliferation strength (TCL-02 DK1)” value is reported as 9.80.
In the case of KEDFLGSLVKEIPPRLLYAK-OH [compound 45], the “Proliferation strength (TCL-02 DK1)” value is reported as 4.00.
KPAAAATATATSAVGAATGA-OH [compound 87] was tested, and the “Proliferation strength (TCL-02 DK1)” value was 0.70.
With KPPFSGMTGSGNTPI-OH [compound 122] the “Proliferation strength (TCL-02 DK1)” value was 0.60.
KPPFSGMTGSGNTPIFKSGR-OH [compound 19] was tested, and the “Proliferation strength (TCL-02 DK1)” value was 1.10.
With KPTGAGPKDNGGASGYKDVD-OH [compound 17] the “Proliferation strength (TCL-02 DK1)” value was 2.80.
KSSKPLVGPFNFRFMSKGGM-OH [compound 39] was tested, and the “Proliferation strength (TCL-02 DK1)” value was 1.10.
KVPPGPNITATYGDKWLDAK-OH [compound 15] was tested, and the “Proliferation strength (TCL-02 DK1)” value was 0.50.
LSYRSLQPETFAVVDLNKMR-OH [compound 53] was tested, and the “Proliferation strength (TCL-02 DK1)” value was 1.20.
In the case of LVKYVNGDGDVVAVDIKEKG-OH [compound 9], the “Proliferation strength (TCL-02 DK1)” value is reported as 1.60.
With PFDGMTASGNEPIFKDGLGS-OH [compound 94] the “Proliferation strength (TCL-02 DK1)” value was 2.90.
In the case of PMKSSWGAIWRIDPKKPLKG-OH [compound 108], the “Proliferation strength (TCL-02 DK1)” value is reported as 4.10.
For PYVSKNPRQAYANYRDIDLG-OH [compound 56], the “Proliferation strength (TCL-02 DK1)” value was 3.10.
For RASYEIKSKEPVESSGEPVL-OH [compound 96], the “Proliferation strength (TCL-02 DK1)” value was 0.60.
With RFLTEKGMKNVFDDVVPEKY-OH [compound 34] the “Proliferation strength (TCL-02 DK1)” value was 0.60.

These substances were tested on release of IL-5 upon T cell activation (assay: Fluorospot assay, IL-5 release (DK1-TCL01, US1-TCL01)). Details: head prints TCL-02 DK1; text: 25 TCL-01 DK1 lines.
Type: cell-based, human
In short: as §1
In the case of IPKVPPGPNITATYGDKWLD-OH [compound 14], the “IL-5-Fluorospotr % donor coverage (TCL-02 DK1)” value is reported as 0.00%.
ITATYGDKWLDAKSTWYGKP-OH [compound 16] was tested, and the “IL-5-Fluorospotr % donor coverage (TCL-02 DK1)” value was 0.00%.
For KDKWIELKESWGAIWRIDTP-OH [compound 10], the “IL-5-Fluorospotr % donor coverage (TCL-02 DK1)” value was 24.00%.
With KEDFLGSLVKEIPPRLLYAK-OH [compound 45] the “IL-5-Fluorospotr % donor coverage (TCL-02 DK1)” value was 4.00%.
KPAAAATATATSAVGAATGA-OH [compound 87] was tested, and the “IL-5-Fluorospotr % donor coverage (TCL-02 DK1)” value was 0.00%.
With KPPFSGMTGSGNTPI-OH [compound 122] the “IL-5-Fluorospotr % donor coverage (TCL-02 DK1)” value was 4.17%.
With KPPFSGMTGSGNTPIFKSGR-OH [compound 19] the “IL-5-Fluorospotr % donor coverage (TCL-02 DK1)” value was 0.00%.
In the case of KPTGAGPKDNGGASGYKDVD-OH [compound 17], the “IL-5-Fluorospotr % donor coverage (TCL-02 DK1)” value is reported as 8.00%.
With KSSKPLVGPFNFRFMSKGGM-OH [compound 39] the “IL-5-Fluorospotr % donor coverage (TCL-02 DK1)” value was 12.00%.
In the case of KVPPGPNITATYGDKWLDAK-OH [compound 15], the “IL-5-Fluorospotr % donor coverage (TCL-02 DK1)” value is reported as 0.00%.
For LSYRSLQPETFAVVDLNKMR-OH [compound 53], the “IL-5-Fluorospotr % donor coverage (TCL-02 DK1)” value was 0.00%.
In the case of LVKYVNGDGDVVAVDIKEKG-OH [compound 9], the “IL-5-Fluorospotr % donor coverage (TCL-02 DK1)” value is reported as 20.00%.
PFDGMTASGNEPIFKDGLGS-OH [compound 94] was tested, and the “IL-5-Fluorospotr % donor coverage (TCL-02 DK1)” value was 4.00%.
PMKSSWGAIWRIDPKKPLKG-OH [compound 108] was tested, and the “IL-5-Fluorospotr % donor coverage (TCL-02 DK1)” value was 4.00%.
PYVSKNPRQAYANYRDIDLG-OH [compound 56] was tested, and the “IL-5-Fluorospotr % donor coverage (TCL-02 DK1)” value was 0.00%.
In the case of RASYEIKSKEPVESSGEPVL-OH [compound 96], the “IL-5-Fluorospotr % donor coverage (TCL-02 DK1)” value is reported as 0.00%.
RFLTEKGMKNVFDDVVPEKY-OH [compound 34] was tested, and the “IL-5-Fluorospotr % donor coverage (TCL-02 DK1)” value was 4.00%.
